# Assay results: patent publication US11339150B2, “Benzimidazole compounds as HDAC6 inhibitors” (OnKure, Inc., priority 2019, dated 2022)
# Assays:
# [1] = target: HDAC3 (Homo sapiens, UniProt O15379); experiment: HDAC assay (fluorogenic substrate), HDAC3; format: biochemical; details: isoform selectivity table
# Description: (§1) Base Reaction buffer: 50 mM Tris-HCl, pH8.0, 137 mM NaCl, 2.7 mM KCl, and 1 mM MgCl2. Add fresh: 1 mg/ml BSA, 1% DMSO
# (§2) Fluorogenic HDAC General Substrate: 50 μM, Arg-His-Lys-Lys(Ac)
# (§3) • 1. Deliver 2× enzyme in wells of reaction plate except No Enzyme control wells. Add buffer in No En wells. • 2. Deliver compounds in 100% DMSO into the enzyme mixture by Acoustic technology (Echo550; nanoliter range). Spin down and pre-incubation. • 3. Deliver 2× Substrate Mixture (Fluorogenic HDAC Substrate and co-factor if applicable) in all reaction wells to initiate the reaction. Spin and shake. • 4. Incubate for 30 min for Class 2A, 1 hr for HDAC1, 2, 3, and 6, and 2 hr for the rest of HDACs and SIRTs at 30° C. with seal. Development Step: • 5. Add Developer with Trichostatin A (or Nicotinamide for SIRTs) to stop the reaction and to generate fluorescent color. • 6. Kinetic measurement for 1.5 hr with Envision with 15 min interval. (Ex/Em=360/460 nm) • 7. Take endpoint reading for analysis after the development reaches plateau.
# [2] = target: HDAC1 (Homo sapiens, UniProt Q13547); experiment: HDAC assay (fluorogenic substrate), HDAC1; format: biochemical; details: isoform selectivity table
# Description: as §1, §2, §3
# [3] = system: Tubulin deacetylation in U266B1 human myeloma cell line; experiment: Tubulin deacetylation inhibition in U266B1 cells; format: cell-based; details: Cell Type U266B1
# Description: Tubulin Deacetylation Inhibition
# Example 1 was dissolved with DMSO at 10 mM stock. Reference compound TSA was dissolved with DMSO at 10 mM stock. U266B1 human myeloma cell line was purchased from American Type Culture Collection (Manassas, Va.). U266B1 cells were grown in RPMI medium and supplemented with 15% heat-inactivated fetal bovine serum (FBS), 100 μg/ml penicillin, and 100 μg/ml streptomycin. Cultures were maintained at 37° C. in a humidified atmosphere of 5% CO2 and 95% air. 12% Bis-Tris gel and nitrocellulose membrane were purchased from Thermo Fisher. Anti-acetylated-Tubulin antibody (Catalogue #T7451) was purchased from Sigma-Aldrich. Anti-α-Tubulin antibody (Catalogue #sc-12462-R) antibody was purchased from Santa Cruz Biotechnology. Anti-Acetylated Histone H3 (K9) (Catalogue #9649) and anti-Histone H3 (Catalogue #3638) antibodies were purchased from Cell Signaling Technology. Anti-rabbit IgG IRDye 680RD or anti-mouse IgG IRDye 800CW secondary antibodies were purchased from LI-COR.
# [4] = target: HDAC2 (Homo sapiens, UniProt Q92769); experiment: HDAC assay (fluorogenic substrate), HDAC2; format: biochemical; details: isoform selectivity table
# Description: as §1, §2, §3
# [5] = Pharmacokinetic evaluation in male CD1 mice; details: mouse, in vivo, po, 10 mg/kg (p.o.)
# [6] = target: T1, HDAC6 (Homo sapiens, UniProt Q9UBN7); experiment: HDAC assay (fluorogenic substrate), HDAC6; format: biochemical
# T1 sequence (Q9UBN7 1-1215): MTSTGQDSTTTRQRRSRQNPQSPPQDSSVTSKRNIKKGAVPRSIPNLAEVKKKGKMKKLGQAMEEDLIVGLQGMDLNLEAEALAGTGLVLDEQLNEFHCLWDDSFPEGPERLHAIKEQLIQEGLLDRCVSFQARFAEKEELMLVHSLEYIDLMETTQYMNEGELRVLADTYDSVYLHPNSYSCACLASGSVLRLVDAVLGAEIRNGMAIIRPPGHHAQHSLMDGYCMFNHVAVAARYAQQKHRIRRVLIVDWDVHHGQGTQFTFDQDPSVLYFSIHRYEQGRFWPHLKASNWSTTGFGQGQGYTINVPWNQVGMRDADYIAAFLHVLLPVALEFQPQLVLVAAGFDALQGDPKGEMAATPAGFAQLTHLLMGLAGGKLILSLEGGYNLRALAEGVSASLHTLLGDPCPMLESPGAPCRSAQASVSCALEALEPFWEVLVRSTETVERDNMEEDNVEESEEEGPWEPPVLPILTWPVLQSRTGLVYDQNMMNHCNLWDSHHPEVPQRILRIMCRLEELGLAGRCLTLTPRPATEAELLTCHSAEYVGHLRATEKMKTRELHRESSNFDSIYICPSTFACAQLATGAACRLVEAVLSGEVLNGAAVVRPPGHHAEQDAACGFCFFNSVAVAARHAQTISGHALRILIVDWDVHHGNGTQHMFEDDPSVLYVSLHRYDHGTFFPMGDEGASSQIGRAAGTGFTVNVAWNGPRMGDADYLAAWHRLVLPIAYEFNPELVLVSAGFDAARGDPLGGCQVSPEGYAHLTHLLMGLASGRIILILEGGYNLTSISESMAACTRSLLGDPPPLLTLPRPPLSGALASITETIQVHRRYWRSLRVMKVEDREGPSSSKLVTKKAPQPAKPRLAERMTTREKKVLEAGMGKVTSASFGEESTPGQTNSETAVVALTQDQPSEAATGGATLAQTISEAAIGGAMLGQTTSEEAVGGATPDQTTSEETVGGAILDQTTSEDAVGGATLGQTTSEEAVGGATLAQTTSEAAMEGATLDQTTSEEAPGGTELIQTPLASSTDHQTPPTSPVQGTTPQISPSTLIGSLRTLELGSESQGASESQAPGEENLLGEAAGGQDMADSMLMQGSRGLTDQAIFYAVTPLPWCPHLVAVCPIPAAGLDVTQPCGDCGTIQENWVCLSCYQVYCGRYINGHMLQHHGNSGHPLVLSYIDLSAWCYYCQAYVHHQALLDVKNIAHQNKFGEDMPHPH
# Description: as §1, §2, §3
# Sequence of HDAC2 (Q92769 whole entry, canonical isoform): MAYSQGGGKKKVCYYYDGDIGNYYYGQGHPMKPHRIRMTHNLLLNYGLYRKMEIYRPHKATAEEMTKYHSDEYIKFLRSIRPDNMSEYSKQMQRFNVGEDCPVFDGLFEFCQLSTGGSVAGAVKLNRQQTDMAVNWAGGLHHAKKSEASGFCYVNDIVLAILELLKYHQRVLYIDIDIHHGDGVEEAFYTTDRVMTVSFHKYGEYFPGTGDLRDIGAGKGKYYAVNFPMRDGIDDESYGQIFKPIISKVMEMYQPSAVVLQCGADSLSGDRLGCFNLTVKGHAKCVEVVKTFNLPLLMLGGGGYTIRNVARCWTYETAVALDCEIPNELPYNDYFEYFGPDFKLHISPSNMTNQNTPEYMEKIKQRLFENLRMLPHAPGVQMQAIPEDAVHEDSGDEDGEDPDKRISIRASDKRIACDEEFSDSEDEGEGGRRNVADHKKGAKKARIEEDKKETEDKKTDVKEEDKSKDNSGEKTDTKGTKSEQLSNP
# Sequence of HDAC1 (Q13547 whole entry, canonical isoform): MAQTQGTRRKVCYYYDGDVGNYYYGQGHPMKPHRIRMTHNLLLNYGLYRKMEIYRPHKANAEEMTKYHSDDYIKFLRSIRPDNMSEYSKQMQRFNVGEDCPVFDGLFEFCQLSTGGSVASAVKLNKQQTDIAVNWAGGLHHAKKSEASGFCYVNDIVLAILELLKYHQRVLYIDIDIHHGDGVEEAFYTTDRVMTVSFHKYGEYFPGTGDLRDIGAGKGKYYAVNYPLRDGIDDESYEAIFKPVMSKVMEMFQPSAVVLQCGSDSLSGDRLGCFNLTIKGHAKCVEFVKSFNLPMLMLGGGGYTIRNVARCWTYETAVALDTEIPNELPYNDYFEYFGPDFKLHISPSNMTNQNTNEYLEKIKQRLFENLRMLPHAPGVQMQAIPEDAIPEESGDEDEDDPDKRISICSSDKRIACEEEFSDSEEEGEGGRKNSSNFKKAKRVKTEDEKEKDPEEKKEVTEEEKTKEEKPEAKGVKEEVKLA
# Sequence of HDAC3 (O15379 whole entry, canonical isoform): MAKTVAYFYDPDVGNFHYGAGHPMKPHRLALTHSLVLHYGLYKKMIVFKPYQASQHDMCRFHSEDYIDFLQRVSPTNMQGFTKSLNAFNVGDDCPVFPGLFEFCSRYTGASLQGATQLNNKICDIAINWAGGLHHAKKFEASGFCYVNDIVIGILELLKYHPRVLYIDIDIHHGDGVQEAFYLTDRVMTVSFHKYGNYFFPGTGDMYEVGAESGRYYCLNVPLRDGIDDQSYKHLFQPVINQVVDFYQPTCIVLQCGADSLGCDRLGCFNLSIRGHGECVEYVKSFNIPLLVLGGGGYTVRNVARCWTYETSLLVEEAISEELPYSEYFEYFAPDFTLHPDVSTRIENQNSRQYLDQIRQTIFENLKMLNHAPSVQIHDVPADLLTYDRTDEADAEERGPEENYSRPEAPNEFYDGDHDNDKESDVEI
# Sequence of HDAC3 (Q9Y618 395-489 partner limits assumed): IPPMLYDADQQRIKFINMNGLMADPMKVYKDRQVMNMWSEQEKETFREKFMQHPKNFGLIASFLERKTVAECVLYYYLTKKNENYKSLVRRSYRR
Structure (SMILES),inhibition at 10 µM [6],also measured
"OCCn1c(C(F)(F)F)nc2c(-c3ccccc3)cc(Nc3ncc(-c4nnc(C(F)F)o4)cn3)cc21 [Example 41, 2-(6-((5-(5-(difluoromethyl)-1,3,4-oxadiazol-2-yl)pyrimidin-2-yl)amino)-4-phenyl-2-(trifluoromethyl)-1H-benzo[d]imidazol-1-yl)ethan-1-ol]",> 90%,–
"OCCn1cnc2c(-c3cn[nH]c3)cc(Nc3ncc(-c4nnc(C(F)F)o4)cn3)cc21 [Example 46, 2-(6-((5-(5-(difluoromethyl)-1,3,4-oxadiazol-2-yl)pyrimidin-2-yl)amino)-4-(1H-pyrazol-4-yl)-1H-benzo[d]imidazol-1-yl)ethan-1-ol]",> 90%,–
C#CCn1cnc2c(-c3ccccc3)cc(Nc3ncc(-c4nnc(C(F)F)o4)cn3)cc21 [Example 47],> 90%,–
"FC(F)c1nnc(-c2cnc(Nc3cc(-c4ccccc4)c4ncn(CC(F)(F)F)c4c3)nc2)o1 [Example 48, N-(5-(5-(difluoromethyl)-1,3,4-oxadiazol-2-yl)pyrimidin-2-yl)-4-phenyl-1-(2,2,2-trifluoroethyl)-1H-benzo[d]imidazol-6-amine]",> 90%,–
"CC(/C=C/C(=O)NO)=C\[C@@H](C)C(=O)c1ccc(N(C)C)cc1 [Trichostatin, reference compound]",–,IC50 [3]: 750 nM

# Continued, in another order:
inhibition at 10 µM [6],Structure (SMILES),also measured
> 90%,"FC(F)c1nnc(-c2cnc(Nc3cc(-c4ccccc4)c4nc[nH]c4c3)nc2)o1 [Example 1, N-(5-(5-(difluoromethyl)-1,3,4-oxadiazol-2-yl)pyrimidin-2-yl)-4-phenyl-1H-benzo[d]imidazol-6-amine]","inhibition at 10 µM [1]: < 10%; inhibition at 10 µM [2]: < 20%; IC50 [3]: 2700 nM; inhibition at 10 µM [4]: < 10%; AUC(0-t) [5]: 5820 ng·h/mL; Cmax [5]: 1450 ng/mL; half-life ([5]; read-out: T1/2 h (converted)): 1.75 h; % HDAC6 Inhibition @ 10 uM ([6]; 10 uM, isoform selectivity table): >90%"
> 90%,"Cn1nccc1-c1cc(Nc2ncc(-c3nnc(C(F)F)o3)cn2)cc2[nH]cnc12 [Example 40, N-(5-(5-(difluoromethyl)-1,3,4-oxadiazol-2-yl)pyrimidin-2-yl)-4-(1-methyl-1H-pyrazol-5-yl)-1H-benzo[d]imidazol-6-amine]",–
> 90%,"Fc1cc(I)ccc1-c1cc(Nc2ncc(-c3nnc(C(F)F)o3)cn2)cc2[nH]cnc12 [Example 42, N-(5-(5-(difluoromethyl)-1,3,4-oxadiazol-2-yl)pyrimidin-2-yl)-4-(2-fluoro-4-iodophenyl)-1H-benzo[d]imidazol-6-amine]",–
> 90%,"FC(F)c1nnc(-c2cnc(Nc3cc(-c4cn[nH]c4)c4nc[nH]c4c3)nc2)o1 [Example 44, N-(5-(5-(difluoromethyl)-1,3,4-oxadiazol-2-yl)pyrimidin-2-yl)-4-(1H-pyrazol-4-yl)-1H-benzo[d]imidazol-6-amine]",–
> 90%,"Fc1ccc(Cl)cc1-c1cc(Nc2ncc(-c3nnc(C(F)F)o3)cn2)cc2[nH]cnc12 [Example 45, 4-(5-chloro-2-fluorophenyl)-N-(5-(5-(difluoromethyl)-1,3,4-oxadiazol-2-yl)pyrimidin-2-yl)-1H-benzo[d]imidazol-6-amine]",–
